From US20210079443A1, “INDICATOR BAC[…] SELECTING AND […] EFFICACY OF THERAPEUTICS AND METHODS FOR USING SAME” (priority 2018, published 2021)

How the values were obtained:
Test in all cases: Phage-Mediated Detection of Staphylococcus aureus
Assay type in all cases: cell-based
[1] = test system: Staphylococcus aureus strain AR0461 (MRSA, CDC Panel)
Protocol: (§1) Samples of methicillin-resistant S. aureus (MRSA) were primed by adding 135 μl of samples containing S. aureus to rich media. The rich media included sub-inhibitory antibiotic (cefoxitin) to allow for specific enrichment and induction of MRSA. Samples were incubated in rich media for 1-2 hours. Following the priming of the samples, additional cefoxitin was added to the media and samples were incubated for an additional 2 hours. Staphylococcus aureus-specific bacteriophage NanoLuc Indicator phage was added to the samples and incubated for 2 hours. Lysis buffer and NANO-GLO® reagent were added. Following 5 minutes of incubation, measurements of bioluminescence were taken using a GLOMAX® 96 instrument. A signal/background ratio ≥750 RLU indicated positive detection of S. aureus. A signal/background ratio of <750 RLU indicated the sample was negative for S. aureus.

[2] = test system: Staphylococcus aureus strain AR0463 (MRSA, CDC Panel)
Protocol: as §1

[3] = test system: Staphylococcus aureus strain AR0465 (MRSA, CDC Panel)
Protocol: as §1

[4] = test system: Staphylococcus aureus strain AR0468 (MRSA, CDC Panel)
Protocol: as §1

[5] = test system: Staphylococcus aureus strain AR0470 (MRSA, CDC Panel)
Protocol: as §1

[6] = test system: Staphylococcus aureus strain AR0473 (MRSA, CDC Panel)
Protocol: as §1

[7] = test system: Staphylococcus aureus strain AR0474 (MRSA, CDC Panel)
Protocol: as §1

[8] = test system: Staphylococcus aureus strain AR0475 (MRSA, CDC Panel)
Protocol: as §1

[9] = test system: Staphylococcus aureus strain AR0476 (MRSA, CDC Panel)
Protocol: as §1

[10] = test system: Staphylococcus aureus strain AR0477 (MRSA, CDC Panel)
Protocol: as §1

[11] = test system: Staphylococcus aureus strain AR0481 (MRSA, CDC Panel)
Protocol: as §1

[12] = test system: Staphylococcus aureus strain AR0482 (MRSA, CDC Panel)
Protocol: as §1

[13] = test system: Staphylococcus aureus strain AR0484 (MSSA, CDC Panel)
Protocol: as §1

[14] = test system: Staphylococcus aureus strain AR0486 (MSSA, CDC Panel)
Protocol: as §1

[15] = test system: Staphylococcus aureus strain AR0488 (MSSA, CDC Panel)
Protocol: as §1

[16] = test system: Staphylococcus aureus strain AR0490 (MSSA, CDC Panel)
Protocol: as §1

[17] = test system: Staphylococcus aureus strain AR0491 (MSSA, CDC Panel)
Protocol: as §1

[18] = test system: Staphylococcus aureus strain AR0492 (MSSA, CDC Panel)
Protocol: as §1

[19] = test system: Staphylococcus aureus strain BAA-1720 (MRSA, ATCC); settings: detected CFU 16, cefoxitin 1.8 ug/mL
Protocol: as §1

[20] = test system: Staphylococcus aureus strain BAA-1721 (MSSA, ATCC)
Protocol: as §1

[21] = test system: Staphylococcus aureus strain BAA-2313 (MRSA, ATCC)
Protocol: as §1

[22] = test system: Staphylococcus aureus strain BAA-42 (MRSA, ATCC)
Protocol: as §1

`CO[C@@]1(NC(=O)Cc2cccs2)C(=O)N2C(C(=O)O)=C(COC(N)=O)CS[C@@H]21` [Cefoxitin, cefoxitin] was tested, and the “Cefoxitin Concentration 1 ug/mL (indicator phage luminescence signal)” value (“Cefoxitin Concentration 1 ug/mL” below) ([1]; detected CFU 25, cefoxitin 1 ug/mL) was 3460 RLU, the “Cefoxitin Concentration 2 ug/mL (indicator phage luminescence signal)” value (“Cefoxitin Concentration 2 ug/mL” for short) ([1]; detected CFU 25, cefoxitin 2 ug/mL) was 1846 RLU and the “Cefoxitin Concentration 4 ug/mL (indicator phage luminescence signal)” value (“Cefoxitin Concentration 4 ug/mL” for short) ([1]; detected CFU 25, cefoxitin 4 ug/mL) was 910 RLU. The “Cefoxitin Concentration 1.8 ug/mL (indicator phage luminescence signal)” value ([2]; detected CFU 28, cefoxitin 1.8 ug/mL) was 1941 RLU, the “Cefoxitin Concentration 1 ug/mL” value ([2]; detected CFU 265, cefoxitin 1 ug/mL) was 8987 RLU and the “Cefoxitin Concentration 2 ug/mL” value ([2]; detected CFU 265, cefoxitin 2 ug/mL) was 3377 RLU. For the same compound, the “Cefoxitin Concentration 4 ug/mL” value ([2]; detected CFU 265, cefoxitin 4 ug/mL) was 339 RLU, the “Cefoxitin Concentration 1 ug/mL” value ([3]; detected CFU 101, cefoxitin 1 ug/mL) was 8263 RLU and the “Cefoxitin Concentration 2 ug/mL” value ([3]; detected CFU 101, cefoxitin 2 ug/mL) was 4086 RLU. The “Cefoxitin Concentration 4 ug/mL” value ([3]; detected CFU 101, cefoxitin 4 ug/mL) was 3006 RLU, the “Cefoxitin Concentration 1 ug/mL” value ([4]; detected CFU 169, cefoxitin 1 ug/mL) was 10330 RLU and the “Cefoxitin Concentration 2 ug/mL” value ([4]; detected CFU 169, cefoxitin 2 ug/mL) was 10070 RLU. For the same compound, the “Cefoxitin Concentration 4 ug/mL” value ([4]; detected CFU 169, cefoxitin 4 ug/mL) was 5002 RLU, the “Cefoxitin Concentration 1 ug/mL” value ([5]; detected CFU 215, cefoxitin 1 ug/mL) was 3502 RLU and the “Cefoxitin Concentration 2 ug/mL” value ([5]; detected CFU 215, cefoxitin 2 ug/mL) was 1846 RLU. For the same compound, the “Cefoxitin Concentration 4 ug/mL” value ([5]; detected CFU 215, cefoxitin 4 ug/mL) was 179 RLU, the “Cefoxitin Concentration 1 ug/mL” value ([6]; detected CFU 219, cefoxitin 1 ug/mL) was 60000 RLU and the “Cefoxitin Concentration 2 ug/mL” value ([6]; detected CFU 219, cefoxitin 2 ug/mL) was 17500 RLU. The “Cefoxitin Concentration 4 ug/mL” value ([6]; detected CFU 219, cefoxitin 4 ug/mL) was 338 RLU, the “Cefoxitin Concentration 1 ug/mL” value ([7]; detected CFU 477, cefoxitin 1 ug/mL) was 3449 RLU and the “Cefoxitin Concentration 2 ug/mL” value ([7]; detected CFU 477, cefoxitin 2 ug/mL) was 2235 RLU. The “Cefoxitin Concentration 4 ug/mL” value ([7]; detected CFU 477, cefoxitin 4 ug/mL) was 1684 RLU, the “Cefoxitin Concentration 1 ug/mL” value ([8]; detected CFU 134, cefoxitin 1 ug/mL) was 52460 RLU and the “Cefoxitin Concentration 2 ug/mL” value ([8]; detected CFU 134, cefoxitin 2 ug/mL) was 57660 RLU. For the same compound, the “Cefoxitin Concentration 4 ug/mL” value ([8]; detected CFU 134, cefoxitin 4 ug/mL) was 34040 RLU, the “Cefoxitin Concentration 1 ug/mL” value ([9]; detected CFU 95, cefoxitin 1 ug/mL) was 245000 RLU and the “Cefoxitin Concentration 2 ug/mL” value ([9]; detected CFU 95, cefoxitin 2 ug/mL) was 52910 RLU. For the same compound, the “Cefoxitin Concentration 4 ug/mL” value ([9]; detected CFU 95, cefoxitin 4 ug/mL) was 21 RLU, the “Cefoxitin Concentration 1 ug/mL” value ([10]; detected CFU 471, cefoxitin 1 ug/mL) was 478000 RLU and the “Cefoxitin Concentration 2 ug/mL” value ([10]; detected CFU 471, cefoxitin 2 ug/mL) was 95970 RLU. The “Cefoxitin Concentration 4 ug/mL” value ([10]; detected CFU 471, cefoxitin 4 ug/mL) was 4068 RLU, the “Cefoxitin Concentration 1 ug/mL” value ([11]; detected CFU 82, cefoxitin 1 ug/mL) was 150100 RLU and the “Cefoxitin Concentration 2 ug/mL” value ([11]; detected CFU 82, cefoxitin 2 ug/mL) was 109000 RLU. The “Cefoxitin Concentration 4 ug/mL” value ([11]; detected CFU 82, cefoxitin 4 ug/mL) was 27170 RLU, the “Cefoxitin Concentration 1 ug/mL” value ([12]; detected CFU 75, cefoxitin 1 ug/mL) was 6741 RLU and the “Cefoxitin Concentration 2 ug/mL” value ([12]; detected CFU 75, cefoxitin 2 ug/mL) was 2477 RLU. For the same compound, the “Cefoxitin Concentration 4 ug/mL” value ([12]; detected CFU 75, cefoxitin 4 ug/mL) was 204 RLU, the “Cefoxitin Concentration 1 ug/mL” value ([13]; detected CFU 525, cefoxitin 1 ug/mL) was 8875 RLU and the “Cefoxitin Concentration 2 ug/mL” value ([13]; detected CFU 525, cefoxitin 2 ug/mL) was 172 RLU. For the same compound, the “Cefoxitin Concentration 4 ug/mL” value ([13]; detected CFU 525, cefoxitin 4 ug/mL) was 182 RLU, the “Cefoxitin Concentration 1 ug/mL” value ([14]; detected CFU 220, cefoxitin 1 ug/mL) was 9217 RLU and the “Cefoxitin Concentration 4 ug/mL” value ([14]; detected CFU 220, cefoxitin 4 ug/mL) was 252 RLU. The “Cefoxitin Concentration 1 ug/mL” value ([15]; detected CFU 151, cefoxitin 1 ug/mL) was 15430 RLU, the “Cefoxitin Concentration 2 ug/mL” value ([15]; detected CFU 151, cefoxitin 2 ug/mL) was 207 RLU and the “Cefoxitin Concentration 4 ug/mL” value ([15]; detected CFU 151, cefoxitin 4 ug/mL) was 197 RLU. The “Cefoxitin Concentration 1 ug/mL” value ([16]; detected CFU 940, cefoxitin 1 ug/mL) was 40620 RLU, the “Cefoxitin Concentration 2 ug/mL” value ([16]; detected CFU 940, cefoxitin 2 ug/mL) was 254 RLU and the “Cefoxitin Concentration 4 ug/mL” value ([16]; detected CFU 940, cefoxitin 4 ug/mL) was 582 RLU. For the same compound, the “Cefoxitin Concentration 1 ug/mL” value ([17]; detected CFU 217, cefoxitin 1 ug/mL) was 40760 RLU, the “Cefoxitin Concentration 2 ug/mL” value ([17]; detected CFU 217, cefoxitin 2 ug/mL) was 215 RLU and the “Cefoxitin Concentration 4 ug/mL” value ([17]; detected CFU 217, cefoxitin 4 ug/mL) was 266 RLU. For the same compound, the “Cefoxitin Concentration 1 ug/mL” value ([18]; detected CFU 178, cefoxitin 1 ug/mL) was 13040 RLU, the “Cefoxitin Concentration 2 ug/mL” value ([18]; detected CFU 178, cefoxitin 2 ug/mL) was 194 RLU and the “Cefoxitin Concentration 1.8 ug/mL (indicator phage luminescence signal)” value [19] was 4034 RLU. For the same compound, the “Cefoxitin Concentration 1 ug/mL” value ([20]; detected CFU 197, cefoxitin 1 ug/mL) was 21900 RLU, the “Cefoxitin Concentration 2 ug/mL” value ([20]; detected CFU 197, cefoxitin 2 ug/mL) was 172 RLU and the “Cefoxitin Concentration 4 ug/mL” value ([20]; detected CFU 197, cefoxitin 4 ug/mL) was 164 RLU. The “Cefoxitin Concentration 1 ug/mL” value ([21]; detected CFU 192, cefoxitin 1 ug/mL) was 363300 RLU, the “Cefoxitin Concentration 2 ug/mL” value ([21]; detected CFU 192, cefoxitin 2 ug/mL) was 52440 RLU and the “Cefoxitin Concentration 4 ug/mL” value ([21]; detected CFU 192, cefoxitin 4 ug/mL) was 2409 RLU. For the same compound, the “Cefoxitin Concentration 1 ug/mL” value ([22]; detected CFU 165, cefoxitin 1 ug/mL) was 8634 RLU, the “Cefoxitin Concentration 2 ug/mL” value ([22]; detected CFU 165, cefoxitin 2 ug/mL) was 775 RLU and the “Cefoxitin Concentration 4 ug/mL” value ([22]; detected CFU 165, cefoxitin 4 ug/mL) was 240 RLU.
